Ends that are not written are not given here.
What was measured:
5-HT2AR = target: T1, 5-HT2AR (Homo sapiens, UniProt P28223); assay: 5-HT-stimulated inositol phosphate formation in HEK 293 cells transfected with FLAG-5-HT2AR and HA-CRFR1; format: cell-based; conditions: for effect on the CRFR1-dependent increase in 5-HT2AR-stimulated inositol phosphate formation following CRF pretreatment: CRF 500 nM 30 min, monensin 100 μM 30 min, Tat peptide 1 h pretreatment, or co-expressed dominant-negative protein
T1 construct: expressed in transfected cells; host or cells: HEK 293
T1 sequence (P28223 whole entry): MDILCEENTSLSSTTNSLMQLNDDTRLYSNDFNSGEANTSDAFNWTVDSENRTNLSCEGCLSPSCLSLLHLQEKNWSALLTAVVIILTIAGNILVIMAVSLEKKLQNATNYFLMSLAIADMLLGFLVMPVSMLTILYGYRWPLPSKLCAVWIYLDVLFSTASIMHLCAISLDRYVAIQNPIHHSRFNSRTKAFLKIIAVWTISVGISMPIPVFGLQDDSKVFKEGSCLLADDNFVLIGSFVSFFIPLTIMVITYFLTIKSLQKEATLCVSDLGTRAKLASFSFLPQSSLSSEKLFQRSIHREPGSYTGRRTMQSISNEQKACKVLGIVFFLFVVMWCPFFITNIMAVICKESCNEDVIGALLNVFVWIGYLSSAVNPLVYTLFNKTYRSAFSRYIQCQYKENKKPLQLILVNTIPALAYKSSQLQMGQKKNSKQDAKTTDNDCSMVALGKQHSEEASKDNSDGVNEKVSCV

mice [1] = assay: Elevated plus maze test (anxiety-related behaviour); format: in vivo, mouse; conditions: DOI 0.15 mg/kg i.p.; for entries to the closed arms of the plus maze: relative to vehicle
Method: (§1) Male CD-1 mice were obtained from Charles River Canada (St. Constant, Quebec) at 50-60 days of age, and were acclimatized to the laboratory for approximately 30 days before serving as experimental subjects. Mice were housed four per cage, until the time of surgery, after which they were housed individually. The vivarium was maintained on a 12-h light/dark cycle in a temperature (21° C.) controlled room with food and water freely available. Mice were anesthetized using isoflurane and stereotaxic surgery (David Kopf Instruments Model 940) was performed to install a cannulae into the medial prefrontal cortex. A Guide cannulae (Plastics One In), situated according to the mouse atlas of Franklin and Paxinos at Lateral=0.32 mm, D/V=2.25 mm, A/P=+2.68 mm. A dummy cannula, was inserted flush with guide. Approximately 1 week after behavioral testing mice were perfused with 4% paraformaldehyde. Brains were subsequently sectioned at 14 microns and stained with Cresyl violet for probe placement verification. Only the data from mice with correct probe placements were used in the analysis of the behavioral tests.
Drug diffusion was permitted for 5 min, and then after a further 5 min period mice were injected intraperotineally with DOI (Sigma) at a dose of 0.15 mg/kg or saline. Behavioral testing was conducted 15 min after the DOI treatment. In a second experiment the procedure was identical to that of the preceding study, except that mice were pretreated i.p. with either vehicle or 0.25 mg/kg of M100907 in a volume of 0.3 ml immediately prior to the DOI treatment. As in the preceding study mice were then tested in the elevated plus maze test (n=6-8)/group. Once again, data were obtained from videotapes and the researcher was blind as to the treatments mice had received.
In an initial test, mice were placed in a 45×45 cm open field, with an inner square of 21×24×24 cm., for a 5 min period, during which the time to enter the center area, and the total time spent in the center portion of the arena was recorded. The plus maze test was then conducted 1 min after the open field assessment. Mice were individually placed in one of the enclosed arms of a plus-maze and the behavior of the animals was recorded over a 5 min period by a ceiling-mounted video camera. The amount of time spent in each of the arms, the number of arm entries (an arm entry was defined as all four of the paws being placed in an arm of the plus-maze). The elevated plus-maze had two arms enclosed by 21 cm high walls; whereas the remaining two arms were open (arms were 24.8 cm long×7.7 cm wide). The maze was situated in a dimly lit room, such that the closed arms were darkened, whereas open arms were somewhat illuminated. All behavioural experiments were blinded. All experiments complied with the guidelines set by the Canadian Council on Animal Care and were approved by the Carleton University Animal Care Committee.

mice [2] = assay: Open field test (anxiety-related behaviour); format: in vivo, mouse; conditions: 5 min test; CRF 1.5 μg into medial prefrontal cortex, DOI 0.15 mg/kg i.p.; vs vehicle-vehicle or single treatment
Method: as §1, with “Brains were subsequently sectioned at 14 microns and stained with Cresyl violet for probe placement verification. Only the data from mice with correct probe placements were used in the analysis of the behavioral tests.” left out
In an initial test, mice were placed in a 45×45 cm open field, with an inner square of 21×24×24 cm., for a 5 min period, during which the time to enter the center area, and the total time spent in the center portion of the arena was recorded. […] Mice were individually placed in one of the enclosed arms of a plus-maze and the behavior of the animals was recorded over a 5 min period by a ceiling-mounted video camera. […]

mice [3] = assay: Elevated plus maze test (anxiety-related behaviour); format: in vivo, mouse; conditions: DOI doses 0.625 and 1.25; data not shown
CRFR1 = target: T2, CRFR1 (Homo sapiens, UniProt P34998); assay: CRF-stimulated cAMP formation (cAMP-Glo) in HEK 293 cells with FLAG-5-HT2AR and HA-CRFR1; format: cell-based; conditions: 5-HT 10 μM pretreatment 30 min
T2 construct: expressed in transfected cells; host or cells: HEK 293
T2 sequence (P34998 24-415): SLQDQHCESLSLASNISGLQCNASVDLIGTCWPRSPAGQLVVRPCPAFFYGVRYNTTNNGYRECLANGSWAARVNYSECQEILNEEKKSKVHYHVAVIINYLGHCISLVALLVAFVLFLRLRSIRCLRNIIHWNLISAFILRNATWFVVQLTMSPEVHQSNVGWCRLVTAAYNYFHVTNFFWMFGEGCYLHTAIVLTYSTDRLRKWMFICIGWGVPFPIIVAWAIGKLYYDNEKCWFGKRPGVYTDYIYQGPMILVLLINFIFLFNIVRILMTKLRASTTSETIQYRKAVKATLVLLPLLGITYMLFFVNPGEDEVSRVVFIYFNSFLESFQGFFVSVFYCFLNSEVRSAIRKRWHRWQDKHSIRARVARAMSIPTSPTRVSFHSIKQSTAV
Method: Briefly, HEK 293 cells transiently expressing FLAG-5-HT2AR and HA-CRFR1 were seeded into 96-well plate (10,000 cells/well). Two days after transfection, cells were incubated in the absence or presence of 10 μM 5-HT in induction buffer [HBSS, 500 μM isobutyl-1-methylxanthine (IBMX)] for 30 minutes at 37° C. […] Following stimulation, cells were solubilized with cAMP-Glo lysis buffer for 15 minutes with gentle shaking at room temperature. Lysates were carefully transferred to a white opaque 96-well plate and cAMP-Glo Detection solution containing protein kinase A was added for 20 minutes at room temperature followed by addition of Kinase-Glo Reagent for 10 min. Luminescence was measured using a Victor Reader (Perkin-Elmer, Walthan, Mass.).

HA-CRFR1 [4] = target: HA-CRFR1
HA-CRFR1 [5] = target: HA-CRFR1; remark: listed apart in the source
[6] = target: endogenous CRFR1 of mouse prefrontal cortex (mouse) (UniProt P35347)
[7] = first experiment, CRF 1.5 μg into medial prefrontal cortex
[8] = second experiment (M100907 study), CRF 1.5 μg mPFC, M100907 0.25 mg/kg i.p.

CC[C@@]1([C@@H]2O[C@@H]([C@H]3O[C@@](O)(CO)[C@H](C)C[C@@H]3C)C[C@@H]2C)CC[C@H]([C@]2(C)CC[C@]3(C[C@H](O)[C@@H](C)[C@@H]([C@@H](C)[C@@H](OC)[C@H](C)C(=O)O)O3)O2)O1 [monensin]
effect on the CRFR1-dependent increase in 5-HT2AR-stimulated inositol phosphate formation following CRF pretreatment (5-HT2AR): attenuated the increase in 5-HT2AR signaling
effect on 5-HT2AR signaling in the absence of CRF pretreatment (5-HT2AR; monensin 100 μM for 30 min, no CRF): did not affect 5-HT2AR signaling

COc1cc(CC(C)N)c(OC)cc1I (stereo not shown) [DOI, 2,5-dimethoxy-4-iodoamphetamine]
latency to enter an open arm of the plus maze (mice [1]; [7]): modest reduction
number of entries into the closed arms of the plus maze (mice [1]; [7]): did not vary
number of entries onto the open arms of the plus maze (mice [1]; [7]): modest reduction
frequency of open arm entries in the plus maze (mice [1]; [8]): neither CRF nor DOI alone affected the frequency of open arm entries
latency to enter the open arms of the plus maze (mice [1]; [8]): did not influence the latencies
time spent in the closed arms of the plus maze (mice [1]; [8]): unaffected
entries to the closed arms of the plus maze (mice [1]; [8]): increased closed arm entries
latency to enter the center square of open field (mice [2]): neither the CRF nor the DOI treatments alone influenced performance
arm entries at significantly higher doses of DOI (mice [3]): elevated arm entries

NCCc1c[nH]c2ccc(O)cc12 [5-HT, serotonin]
effect of pretreatment on CRFR1 responsiveness (CRFR1-mediated cAMP formation) (CRFR1): had no effect

COc1cccc([C@H](O)C2CCN(CCc3ccc(F)cc3)CC2)c1OC [M100907]
frequency of open arm entries in the plus maze (mice [1]; [8]): did not make any entries onto the open arm
latency to enter the open arms of the plus maze (mice [1]; [8]): none of the mice entered the open arms
time spent in the closed arms of the plus maze (mice [1]; [8]): increased
time spent in the open arms of the plus maze (mice [1]; [8]): profoundly influenced
entries to the closed arms of the plus maze (mice [1]; [8]): reduced the frequency of arm entries

SEEPPISLDLTFHLLREVLEMARAEQLAQQAHSNRKLMEII (ligand, UniProt P06850 154-194, looked up, species assumed, ends and bridges not checked) [corticotropin releasing factor (CRF) peptide]
loss of cell surface HA-CRFR1 (flow cytometry) (HA-CRFR1 [4]): 24%
cell surface expression of 5-HT2AR (biotinylation) (HA-CRFR1 [5]): 3.7 fold
5-HT-stimulated inositol phosphate formation in prefrontal cortex slices [6]: 2.3 fold

B1: Rab11-S25N: dominant negative Rab11 protein inhibiting receptor recycling via slow recycling endosomes (protein, UniProt P62491 2-213, looked up, variant S25N)
Ras-related protein Rab-11A: GTRDDEYDYLFKVVLIGDSGVGKNNLLSRFTRNEFNLESKSTIGVEFATRSIQVDGKTIKAQIWDTAGQERYRAITSAYYRGAVGALLVYDIAKHLTYENVERWLKELRDHADSNIVIMLVGNKSDLRHLRAVPTDEARAFAEKNGLSFIETSALDSTNVEAAFQTILTEIYRIVSQKQMSDRRENDMSPSNNVVPIHVPPTTENKPKVQCC
effect on the CRFR1-dependent increase in 5-HT2AR-stimulated inositol phosphate formation following CRF pretreatment (5-HT2AR): but not the overexpression of Rab11-S25N, blocked the increase

B2: Dynamin I-K44A: dominant-negative inhibitor of clathrin-mediated endocytosis, expressed in cells (protein, UniProt Q05193 1-864, looked up, variant K44A)
Dynamin-1: MGNRGMEDLIPLVNRLQDAFSAIGQNADLDLPQIAVVGGQSAGASSVLENFVGRDFLPRGSGIVTRRPLVLQLVNATTEYAEFLHCKGKKFTDFEEVRLEIEAETDRVTGTNKGISPVPINLRVYSPHVLNLTLVDLPGMTKVPVGDQPPDIEFQIRDMLMQFVTKENCLILAVSPANSDLANSDALKVAKEVDPQGQRTIGVITKLDLMDEGTDARDVLENKLLPLRRGYIGVVNRSQKDIDGKKDITAALAAERKFFLSHPSYRHLADRMGTPYLQKVLNQQLTNHIRDTLPGLRNKLQSQLLSIEKEVEEYKNFRPDDPARKTKALLQMVQQFAVDFEKRIEGSGDQIDTYELSGGARINRIFHERFPFELVKMEFDEKELRREISYAIKNIHGIRTGLFTPDMAFETIVKKQVKKIREPCLKCVDMVISELISTVRQCTKKLQQYPRLREEMERIVTTHIREREGRTKEQVMLLIDIELAYMNTNHEDFIGFANAQQRSNQMNKKKTSGNQDEILVIRKGWLTINNIGIMKGGSKEYWFVLTAENLSWYKDDEEKEKKYMLSVDNLKLRDVEKGFMSSKHIFALFNTEQRNVYKDYRQLELACETQEEVDSWKASFLRAGVYPERVGDKEKASETEENGSDSFMHSMDPQLERQVETIRNLVDSYMAIVNKTVRDLMPKTIMHLMINNTKEFIFSELLANLYSCGDQNTLMEESAEQAQRRDEMLRMYHALKEALSIIGDINTTTVSTPMPPPVDDSWLQVQSVPAGRRSPTSSPTPQRRAPAVPPARPGSRGPAPGPPPAGSALGGAPPVPSRPGASPDPFGPPPQVPSRPNRAPPGVPSRSGQASPSRPESPRPPFDL
effect on the CRFR1-dependent increase in 5-HT2AR-stimulated inositol phosphate formation following CRF pretreatment (5-HT2AR): completely eliminated
